According to patent US20240116926A1, “HETEROAROMATIC COMPOUNDS” (AstraZeneca AB, priority 2022, published 2024):
≈ marks a conversion by molar mass, not a printed value.

Experiments:
TEAD4(217-434) = TEAD4(217-434) (Homo sapiens (Human), UniProt Q15561); test: TEAD4 FRET; format: binding; conditions: depalmitoylated, biotinylated TEAD4(217-434), FAM labelled Probe A, 120 min at 25° C.
Protocol: Compounds were dosed with a final DMSO concentration of 1% (v/v). Compound IC50 values were assessed following a 10-point, half-log10 dilution schema starting at 100 μM compound concentration. Specifically, human TEAD protein from TEAD4(217-434) was cloned into an overexpression vector, expressed as an N-terminal HIS-TEV-Avi-tagged fusion protein in E coli, and subsequently purified, then protein was chemically depalmitoylated & biotinylated. The assay was performed in 384-well LV plates (384-well black, medium binding, PS, HIBASE, GREINER #784076) and run in the presence and absence of the compound of interest. Each well of 5 μL assay mixture contained 10 mM Tris-HCl (pH 7.5), 100 mM NaCl, 0.05 mM EDTA, 1 mM TECP, 1% DMSO, 0.03% Pluronic acid F127, 20 nM dePal Avi TEAD4 (217-434)-depalmitoylated & biotinylated protein, 0.8 nM Streptavidin Terbium cryptate (CisBio #610SATLB), 625 nM FAM labelled Probe A. Reactions were incubated at 25° C. for 120 min before reading on a PHERASTAR FSX Plate Reader (337 520 490 HTRF module required) (Supplier BMP).
The data file from the PHERAstar FSX contains both the acceptor (520 nm) and donor channels (490 nm) (“Channel A”=acceptor channel (520 nm), “Channel B”=donor channel (490 nm)). The ratio of the donor and acceptor (Channel A/Channel B) is calculated within Genedata Assay Analyzer.
Probe A is 3′,6′-dihydroxy-3-oxo-N-{8-[2-(5-{2-[4-(trifluoromethyl)anilino]phenyl}-2H-tetrazol-2-yl)acetamido]octyl}-3H-spiro[[2]benzofuran-1,9′-xanthene]-5-carboxamide;

MCF7-Tead cell line = test: TEAD reporter assay; format: cell-based; conditions: MCF7-Tead cells, luciferase activity after 24 hours
Protocol: (§1) MCF7-Tead cell line was obtained from BPS BIOSCIENCE (catalog number 60618) and was maintained in DMEM containing 10% fetal calf serum, 2 mM glutamine, and 400 μg/ml G418. Cells were grown in a humidified incubator at 37° C. with 5% CO2. Cells were distributed to flat bottom white polystyrene TC treated 384 well plates at a density of 3,500 cells/well in 30 uL. Cells were incubated for 24 hours at 37° C. with 5% CO2. Cells were acoustically dosed using an Echo 555, with compounds serially diluted in 100% DMSO. Plates were incubated for an additional 24 hours. Cells were examined for luciferase activity through the addition of 30 μL Bright-Glo luciferase (Promega catalog number E2620). Plates were incubated for 10 minutes at room temperature and luminescence was read using Tecan plate reader. The data obtained with each compound was exported to […] software to perform curve fitting analysis.

[1] = test system: MCF7-Luciferase cell line; test: Control reporter (MCF7-Luciferase); format: cell-based; conditions: MCF7-Luciferase cells, luciferase activity after 24 hours
Protocol: (iii) Control Reporter (MCF7-Luciferase)
as §1, with “MCF7-Luciferase” for “MCF7-Tead”, “BPS BIOSCIENCE” left out, “SC050-L)” for “60618)”, “glutamine.” for “glutamine, and 400 μg/ml G418.”, “μL.” for “uL.”

[2] = Solubility (thermodynamic, shake-flask); format: physicochemical; conditions: thermodynamic from solid; aqueous phosphate buffer (pH 7.4), 24 hours at 25° C.
Protocol: The thermodynamic solubility of a research compound is measured under standard conditions. It is a shake-flask approach that uses 10 mM DMSO solutions which are supplied from the Compound Managements liquid store and is a high throughput method. The dried compounds are equilibrated in an aqueous phosphate buffer (pH 7.4) for 24 hours at 25° C., the portion with the dissolved compound is then separated from the remains. The solutions are analyzed and quantified using UPLC/MS/MS, QC-samples are incorporated in each assay-run to ensure the quality of the assay.

Sequence of TEAD4(217-434) (Q15561 217-434): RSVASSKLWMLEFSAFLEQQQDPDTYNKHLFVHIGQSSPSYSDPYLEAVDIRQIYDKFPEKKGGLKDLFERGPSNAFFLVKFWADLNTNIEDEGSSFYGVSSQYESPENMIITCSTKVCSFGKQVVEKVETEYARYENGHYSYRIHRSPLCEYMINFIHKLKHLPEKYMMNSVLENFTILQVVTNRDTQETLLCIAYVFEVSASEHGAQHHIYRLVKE

| SMILES | IC50 (TEAD4(217-434)) [nM] | IC50 (MCF7-Tead cell line) [nM] | IC50 [1] [nM] | solubility at 24 h [2] [µM] |
| --- | --- | --- | --- | --- |
| C=CC(=O)N1C[C@@H](F)[C@H](Nc2nnc(-c3ccc(C(F)(F)F)cc3)c3ccccc23)C1 [Example 11, 1-((3R,4R)-3-fluoro-4-((4-(4-(trifluoromethyl)phenyl)phthalazin-1-yl)amino)pyrrolidin-1-yl)prop-2-en-1-one] | 33 | 156 | 10200 | 9 (≈ 3.87 µg/mL) |
| C=CC(=O)N1C[C@H](F)[C@H](Nc2ncc(-c3ccc(C(F)(F)F)cn3)c3ncccc23)C1 [Example 36, 1-((3S,4R)-3-fluoro-4-((8-(5-(trifluoromethyl)pyridin-2-yl)-1,6-naphthyridin-5-yl)amino)pyrrolidin-1-yl)prop-2-en-1-one] | – | 11 | > 31700 | 82 (≈ 35.4 µg/mL) |
| C=CC(=O)N1CC[C@@H](Nc2ncc(-c3ccc(C(F)(F)F)cn3)c3ncccc23)C1 [Comparative Example A, (R)-1-(3-((8-(5-(trifluoromethyl)pyridin-2-yl)-1,6-naphthyridin-5-yl)amino)pyrrolidin-1-yl)prop-2-en-1-one, reference compound] | – | 592 | > 31700 | – |
| C=CC(=O)N1C[C@H](F)[C@H](Nc2ncc(-c3ccc(C(F)(F)F)cc3)c3ncccc23)C1 [Example 44, 1-((3S,4R)-3-fluoro-4-((8-(4-(trifluoromethyl)phenyl)-1,6-naphthyridin-5-yl)amino)pyrrolidin-1-yl)prop-2-en-1-one] | 16 | 22 | 18000 | 3 (≈ 1.29 µg/mL) |
| C#CC(=O)N1CC[C@H](Nc2nnc(-c3ccc(C(F)(F)F)cc3)c3ccccc23)C1 [Example 19, (S)-1-(3-((4-(4-(trifluoromethyl)phenyl)phthalazin-1-yl)amino)pyrrolidin-1-yl)prop-2-yn-1-one] | – | 515 | 977 | 38 (≈ 15.6 µg/mL) |
| C=CC(=O)N1C[C@H](O)[C@H](Nc2nnc(-c3ccc(C(F)(F)F)cc3)c3ccccc23)C1 [Example 12, 1-((3S,4R)-3-hydroxy-4-((4-(4-(trifluoromethyl)phenyl)phthalazin-1-yl)amino)pyrrolidin-1-yl)prop-2-en-1-one] | 52 | 99 | 23500 | 370 (≈ 159 µg/mL) |
| C=CS(=O)(=O)N1CC[C@H](Nc2nnc(-c3ccc(C(F)(F)F)cc3)c3ccccc23)C1 [Example 21, (S)-4-(4-(trifluoromethyl)phenyl)-N-(1-(vinylsulfonyl)pyrrolidin-3-yl)phthalazin-1-amine] | 42 | 929 | 15100 | 34 (≈ 15.2 µg/mL) |
| C=CC(=O)N1C[C@H](F)[C@H](Nc2nnc(-c3ccc(C(F)(F)F)cc3)c3ccccc23)C1 [Example 10, 1-((3S,4R)-3-fluoro-4-((4-(4-(trifluoromethyl)phenyl)phthalazin-1-yl)amino)pyrrolidin-1-yl)prop-2-en-1-one] | 32 | 15 | 15600 | 67 (≈ 28.8 µg/mL) |
| C=CC(=O)N1C[C@@H](CN(C)C)[C@H](Nc2nnc(-c3ccc(C(F)(F)F)cc3)c3ccccc23)C1 [Example 46, 1-((3R,4S)-3-((dimethylamino)methyl)-4-((4-(4-(trifluoromethyl)phenyl)phthalazin-1-yl)amino)pyrrolidin-1-yl)prop-2-en-1-one] | 830 | 283 | 19400 | – |
| C=CC(=O)N1CC(Nc2nc(-c3ccc(C(F)(F)F)cc3)nc3ccccc23)C1 [Comparative Example B, 1-[3-({2-[4-(trifluoromethyl)phenyl]-4-quinazolinyl}amino)-1-azetidinyl]-2-propen-1-one, reference compound] | 30 | 161 | > 31700 | 2 (≈ 0.797 µg/mL) |
| C=CC(=O)N1C[C@H](O)[C@H](Nc2ncc(-c3ccc(C(F)(F)F)cc3)c3ncccc23)C1 [Example 34, 1-((3S,4R)-3-hydroxy-4-((8-(4-(trifluoromethyl)phenyl)-1,6-naphthyridin-5-yl)amino)pyrrolidin-1-yl)prop-2-en-1-one] | 17 | 9 | > 31700 | 44 (≈ 18.9 µg/mL) |

Continued, values first:

| IC50 (TEAD4(217-434)) [nM] | IC50 (MCF7-Tead cell line) [nM] | IC50 [1] [nM] | solubility at 24 h [2] [µM] | SMILES |
| --- | --- | --- | --- | --- |
| 100 | 143 | 13000 | 191 (≈ 83.5 µg/mL) | C=CC(=O)N1CC(C#N)[C@@H](Nc2nnc(-c3ccc(C(F)(F)F)cc3)c3ccccc23)C1 (single isomer, unassigned; enantiomer 1) [Example 30, enantiomer 1 of trans-1-acryloyl-4-((4-(4-(trifluoromethyl)phenyl)phthalazin-1-yl)amino)pyrrolidine-3-carbonitrile] |
| 79 | 34 | > 31700 | 801 (≈ 344 µg/mL) | C=CC(=O)N1C[C@H](O)[C@H](Nc2ncc(-c3ccc(C(F)(F)F)cn3)c3ncccc23)C1 [Example 35, 1-((3S,4R)-3-hydroxy-4-((8-(5-(trifluoromethyl)pyridin-2-yl)-1,6-naphthyridin-5-yl)amino)pyrrolidin-1-yl)prop-2-en-1-one] |
| – | 94 | 22200 | 7 (≈ 3.06 µg/mL) | C=CC(=O)N1C[C@H](C#N)[C@H](Nc2nnc(-c3ccc(C(F)(F)F)cc3)c3ccccc23)C1 (single isomer, unassigned; enantiomer 1) [Example 29, enantiomer 1 of cis-1-acryloyl-4-((4-(4-(trifluoromethyl)phenyl)phthalazin-1-yl)amino)pyrrolidine-3-carbonitrile] |
| 73 | 58 | 31100 | 534 (≈ 243 µg/mL) | C=CC(=O)N1C[C@H](Nc2nnc(-c3ccc(C(F)(F)F)cc3)c3ccccc23)[C@@H](C(N)=O)C1 (single isomer, unassigned; enantiomer 1) [Example 31, enantiomer 1 of trans-1-acryloyl-4-((4-(4-(trifluoromethyl)phenyl)phthalazin-1-yl)amino)pyrrolidine-3-carboxamide] |
| 93 | 67 | 27300 | 10 (≈ 4.31 µg/mL) | C=CC(=O)N1C[C@@H](F)[C@H](Nc2nnc(-c3ccc(C(F)(F)F)cc3)c3ncccc23)C1 [Example 3, 1-((3R,4R)-3-fluoro-4-((8-(4-(trifluoromethyl)phenyl)pyrido[2,3-d]pyridazin-5-yl)amino)pyrrolidin-1-yl)prop-2-en-1-one] |
| 93 | 67 | 27300 | 209 (≈ 90.2 µg/mL) | C=CC(=O)N1C[C@H](F)[C@H](Nc2nnc(-c3ccc(C(F)(F)F)cc3)c3ncccc23)C1 [Example 1, 1-((3S,4R)-3-fluoro-4-((8-(4-(trifluoromethyl)phenyl)pyrido[2,3-d]pyridazin-5-yl)amino)pyrrolidin-1-yl)prop-2-en-1-one] |
| 410 | 192 | 26000 | 230 (≈ 99.2 µg/mL) | C=CC(=O)N1C[C@@H](F)[C@H](Nc2nnc(-c3ccc(C(F)(F)F)cc3)c3cccnc23)C1 [Example 4, 1-((3R,4R)-3-fluoro-4-((5-(4-(trifluoromethyl)phenyl)pyrido[2,3-d]pyridazin-8-yl)amino)pyrrolidin-1-yl)prop-2-en-1-one] |
